ChEMBL document CHEMBL1201862, “PubChem BioAssay data set” (2004)
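1) Cells in 96-well plates. 2) Compound, 48 h, 5 concentrations. 3) Linear interpolation between surrounding doses. 4) Unreached endpoint = highest concentration. At the GI50, growth is halved.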 Active and inactive are the calls of the source. No stated cut-off is given here; in the data, active = GI50 up to about 1.1 µM and inactive = higher.

Legend:
Assay in all cases: NCI anticancer screen, dose series, 48 h
A498 = system: A498
A549 = system: A549
CCRF-CEM = system: CCRF-CEM
EKVX = system: EKVX
HCC 2998 = system: HCC 2998
HCT-116 = system: HCT-116
HT-29 = system: HT-29
Hs-578T = system: Hs-578T
M14 = system: M14
MDA-N = system: MDA-N
NCI-H226 = system: NCI-H226
NCI-H23 = system: NCI-H23
OVCAR-3 = system: OVCAR-3
OVCAR-8 = system: OVCAR-8
RPMI-8226 = system: RPMI-8226
SF-295 = system: SF-295
SK-MEL-2 = system: SK-MEL-2
SNB-75 = system: SNB-75
SR = system: SR
T47D = system: T47D

Measured: GI50

COc1ccc(-c2ncnc(-c3ccc(OC)c(OC)c3)n2)cc1OC
inactive: A498 > 100 µM | A549 > 100 µM | CCRF-CEM > 100 µM | EKVX > 100 µM | HCC 2998 > 100 µM | HCT-116 > 100 µM | HT-29 > 100 µM | Hs-578T > 100 µM | M14 > 100 µM | MDA-N > 100 µM | NCI-H226 > 100 µM | NCI-H23 > 100 µM | OVCAR-3 > 100 µM | OVCAR-8 > 100 µM | RPMI-8226 > 10 µM | SF-295 > 100 µM | SK-MEL-2 > 100 µM | SNB-75 > 100 µM | SR 45.2 µM | T47D > 100 µM

CC(C)(C)OC(=O)N1CCC2(CC1)C(=O)NCN2c1ccccc1
inactive: A498 > 100 µM | A549 > 100 µM | CCRF-CEM > 100 µM | EKVX > 100 µM | HCC 2998 > 100 µM | HCT-116 > 100 µM | HT-29 > 100 µM | Hs-578T > 100 µM | M14 > 100 µM | MDA-N > 100 µM | NCI-H226 > 100 µM | NCI-H23 > 100 µM | OVCAR-3 > 100 µM | OVCAR-8 > 100 µM | RPMI-8226 > 100 µM | SF-295 > 100 µM | SK-MEL-2 > 100 µM | SNB-75 > 100 µM | SR > 100 µM | T47D > 100 µM
